In ChEMBL document CHEMBL5338792, “Degradation of Rat Sarcoma Proteins Targeting the Post-Translational Prenyl Modifications via Cascade Azidation/Fluorination and Click Reaction” (J Med Chem, 2023) one finds Activity and inhibition data, which are given here for three compounds.

Assay [1] has as its target T1, Protein cereblon/GTPase HRas/GTPase NRas/GTPase KRas (Homo sapiens) (UniProt P01112+P01111+P01116+Q96SW2). Briefly: SacrPROTAC activity at E3 ubiquitin ligase/RAS in TMSN3/Selectfluor-treated human HeLa cells assessed as induction of RAS degradation at 200 uM measured after 24 hrs in presence of propargyl pomalidomide by Western blot analysis. In kind it is cell-based.

Assay [2] has as its system A549. Briefly: SarcPROTAC activity at VHL/RAS in TMSN3/Selectfluor-treated human A549 cells at 50 uM in presence of CuBr/TBTA incubated for 24 hrs by Western blot analysis. In kind it is cell-based.
Assay [3] has as its system HeLa. Briefly: SarcPROTAC activity at VHL/RAS in TMSN3/Selectfluor-treated human HeLa cells at 50 uM in presence of CuBr/TBTA incubated for 24 hrs by Western blot analysis. In kind it is cell-based.
The test system of assay [4] is MCF7. The assay is described as follows: SacrPROTAC activity at E3 ubiquitin ligase/RAS in TMSN3/Selectfluor-treated human MCF7 cells assessed as induction of RAS degradation at 200 uM measured after 24 hrs by Western blot analysis. In kind it is functional, cell-based. (In western blotting, separated proteins are transferred to a membrane and probed.)
In assay [5] the target is T1, Protein cereblon/GTPase HRas/GTPase NRas/GTPase KRas (Homo sapiens). Briefly: SacrPROTAC activity at E3 ubiquitin ligase/RAS in TMSN3/Selectfluor-treated human HeLa cells assessed as induction of RAS degradation at 75 uM incubated for >48 hrs by Western blot analysis. In kind it is cell-based.
For assay [6], the system named is HeLa. Briefly: Upregulation of GSTP1 in TMSN3/Selectfluor-treated human HeLa cells at 50 to 200 uM incubated for 24 hrs in presence of CuBr/TBTA by TMT mass spectrometric analysis. In kind it is functional, cell-based. The settings on record: dose 50-200 µM.
Assay [7] relates to HT-29. Briefly: SacrPROTAC activity at E3 ubiquitin ligase/RAS in TMSN3/Selectfluor-treated human HT-29 cells assessed as induction of RAS degradation at 100 to 200 uM measured after 24 hrs by Western blot analysis. Format: functional, cell-based. The conditions noted are these: dose 100-200 µM.
Assay [8] concerns HeLa. Briefly: Induction of apoptosis in TMSN3/Selectfluor-treated human HeLa cells at 200 uM in presence of CuBr/TBTA incubated for 24 hrs by annexin V-FITC/PI staining based flow cytometry. In kind it is functional, cell-based.
Assay [9] concerns MCF7. The assay is described as follows: SacrPROTAC activity at E3 ubiquitin ligase/RAS in TMSN3/Selectfluor-treated human MCF7 cells assessed as induction of RAS degradation at 200 uM measured upto 48 hrs by Western blot analysis. Format: functional, cell-based.
The target in assay [10] is T1, Protein cereblon/GTPase HRas/GTPase NRas/GTPase KRas (Homo sapiens). Briefly: SacrPROTAC activity at E3 ubiquitin ligase/RAS in TMSN3/Selectfluor-treated human HeLa cells assessed as induction of RAS degradation incubated for 24 hrs by Western blot analysis. Format: cell-based. The conditions noted are these: dose <= 200.0 µM.
Assay [11] shares this target. Briefly: SacrPROTAC activity at E3 ubiquitin ligase/RAS in TMSN3/Selectfluor-treated human HeLa cells assessed as induction of RAS degradation at 200 uM measured after 24 hrs in presence of methyl propargyl pomalidomide by Western blot analysis. Format: cell-based.
Assay [12] has the same target. Briefly: SacrPROTAC activity at E3 ubiquitin ligase/RAS in TMSN3/Selectfluor-treated human HeLa cells assessed as induction of RAS degradation at 200 uM measured after 24 hrs in presence of PYR-41 by Western blot analysis. Format: cell-based.
Assay [13] concerns HT-29. Briefly: Inhibition of […] in TMSN3/Selectfluor-treated human HT-29 cells upto 200 uM in presence of CuBr/TBTA by CCK8 assay. Format: functional, cell-based.
Assay [14] addresses T1, Protein cereblon/GTPase HRas/GTPase NRas/GTPase KRas (Homo sapiens). The assay is described as follows: SacrPROTAC activity at E3 ubiquitin ligase/RAS in TMSN3/Selectfluor-treated human HeLa cells assessed as induction of RAS degradation at 200 uM measured after 24 hrs by Western blot analysis. Format: cell-based.
Assay [15] deals with HeLa. The assay is described as follows: Downregulation of HRAS in TMSN3/Selectfluor-treated human HeLa cells at 50 to 200 uM incubated for 24 hrs in presence of CuBr/TBTA by TMT mass spectrometric analysis. Format: functional, cell-based. The conditions noted are these: dose 50-200 µM.
Assay [16] has as its system A549. The assay is described as follows: SacrPROTAC activity at E3 ubiquitin ligase/RAS in TMSN3/Selectfluor-treated human A549 cells assessed as induction of RAS degradation at 200 uM measured for 48 hrs by Western blot analysis. In kind it is functional, cell-based.
For assay [17], the system named is HT-29. Briefly: SacrPROTAC activity at E3 ubiquitin ligase/RAS in TMSN3/Selectfluor-treated human HT-29 cells assessed as induction of RAS degradation at 100 to 200 uM measured for 12 to 24 hrs by Western blot analysis. Format: functional, cell-based. The conditions noted are these: dose 100-200 µM, time 12-24 hrs.

Calls of active or inactive are those of the source. No cut-off for these calls is given here.

T1 sequence (P01111 whole entry, looked up): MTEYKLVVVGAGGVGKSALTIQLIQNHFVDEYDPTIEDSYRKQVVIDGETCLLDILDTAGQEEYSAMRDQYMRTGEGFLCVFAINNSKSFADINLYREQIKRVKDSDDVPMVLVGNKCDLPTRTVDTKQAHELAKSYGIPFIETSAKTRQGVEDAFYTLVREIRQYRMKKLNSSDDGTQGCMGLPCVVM
T1 sequence (P01112 whole entry, looked up): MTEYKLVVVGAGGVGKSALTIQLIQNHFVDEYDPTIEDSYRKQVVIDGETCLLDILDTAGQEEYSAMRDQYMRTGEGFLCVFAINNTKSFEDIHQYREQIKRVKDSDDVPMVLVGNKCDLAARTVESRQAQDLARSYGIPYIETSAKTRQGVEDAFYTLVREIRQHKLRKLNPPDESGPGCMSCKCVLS
T1 sequence (P01116 whole entry, looked up): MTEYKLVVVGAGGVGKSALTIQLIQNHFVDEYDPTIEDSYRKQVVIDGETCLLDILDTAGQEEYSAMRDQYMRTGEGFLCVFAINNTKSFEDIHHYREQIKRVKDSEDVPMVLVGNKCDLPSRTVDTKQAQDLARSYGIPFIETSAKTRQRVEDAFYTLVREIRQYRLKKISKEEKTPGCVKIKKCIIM
T1 sequence (Q96SW2 whole entry, looked up): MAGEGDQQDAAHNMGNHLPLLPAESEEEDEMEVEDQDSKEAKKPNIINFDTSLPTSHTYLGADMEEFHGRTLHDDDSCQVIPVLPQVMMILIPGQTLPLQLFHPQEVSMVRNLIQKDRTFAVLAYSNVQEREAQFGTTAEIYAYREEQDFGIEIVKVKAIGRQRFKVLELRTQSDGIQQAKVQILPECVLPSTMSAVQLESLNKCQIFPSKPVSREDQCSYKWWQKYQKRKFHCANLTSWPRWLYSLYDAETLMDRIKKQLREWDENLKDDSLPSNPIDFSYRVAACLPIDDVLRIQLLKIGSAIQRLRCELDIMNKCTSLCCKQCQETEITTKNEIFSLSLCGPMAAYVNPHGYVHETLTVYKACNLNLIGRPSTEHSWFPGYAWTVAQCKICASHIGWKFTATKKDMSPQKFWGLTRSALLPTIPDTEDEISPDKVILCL

For `C#CCNCC(=O)Nc1cccc2c1C(=O)N(C1CCC(=O)N(C)C1=O)C2=O` (configuration not stated), the result in assay [1] was inactive.
Take `C#CCCOC(=O)N[C@H](C(=O)N1C[C@H](O)C[C@H]1C(=O)NCc1ccc(-c2scnc2C)cc1)C(C)(C)C`: the result with A549 [2] and with HeLa [3] was Active.
In the case of `C#CCNCC(=O)Nc1cccc2c1C(=O)N(C1CCC(=O)NC1=O)C2=O` (configuration not stated), the result (in the assay on MCF7 [4]; in [5]; with HeLa [6]; in the assay with HT-29 [7]; with HeLa [8]; in [11]) was Active. Further, the outcome (in [14]; in the assay on HeLa [15]; in the assay with A549 [16]; in the assay with HT-29 [17]) was Active. For the same compound, the result (in the assay on MCF7 [9]; in assay [12]) was inactive. The Activity result in assay [10] was “Dose-Dependent Effect”. Further, the inhibition entry in the assay on HT-29 [13] was “Active”.
